Values quoted from earlier work as cited in patent publication US20050070512A1, “Pharmaceutical composition and methods comprising combinations of 2-alkylidene-19-nor-vitamin D derivatives and an estrogen agonist/antagonist” (Pfizer Inc, priority 2003, published 2005).

Test system: HL-60 cells

Q: With `C=C1[C@H](O)CC(=C/C=C2\CCC[C@]3(C)[C@@H]([C@H](C)CCCC(C)(C)O)CC[C@@H]23)C[C@H]1O` [2-Methylene-19-Nor-1,25-(OH)2D3, 1α,25-dihydroxy-2-methylene-19-nor-vitamin D3] as the molecule, how does the “Induction of differentiation of HL-60 cells to the monocyte (in words)” value read?
A: The value was “activity similar to 1,25-(OH)2D3”.

Q: With `C=C1[C@H](O)CC(=C/C=C2\CCC[C@]3(C)[C@@H]([C@@H](C)CCCC(C)(C)O)CC[C@@H]23)C[C@H]1O` [2-Methylene-19-Nor-20S-1,25-(OH)2D3, (20S)-1α,25-dihydroxy-2-methylene-19-nor-vitamin D3] as the molecule, how does the “Induction of differentiation of HL-60 cells to the monocyte (in words)” value read?
A: The value was “extremely potent”.
